Data: patent US8242151B2, “Tricyclic compounds” (Kyowa Hakko Kirin Co., Ltd., priority 2007, dated 2012)
pEC50: −log10 of the molar value.

What was measured:
[1] = target: T1, GAL4-PPARγ chimeric nuclear receptor (human PPARγ ligand binding region) (Homo sapiens, UniProt P37231); assay: Transactivation assay of PPARγ by transient gene transfer (GAL4-PPARγ luciferase reporter); type: cell-based; conditions: HEK293EBNA cells, 24 hr; concentration showing 50% of efficacy; activity relative to pioglitazone 10 μmol/L = 100%
T1 construct: expressed in transfected cells; host or cells: HEK293EBNA cells
T1 sequence (P37231 174-475 isoform P37231-2): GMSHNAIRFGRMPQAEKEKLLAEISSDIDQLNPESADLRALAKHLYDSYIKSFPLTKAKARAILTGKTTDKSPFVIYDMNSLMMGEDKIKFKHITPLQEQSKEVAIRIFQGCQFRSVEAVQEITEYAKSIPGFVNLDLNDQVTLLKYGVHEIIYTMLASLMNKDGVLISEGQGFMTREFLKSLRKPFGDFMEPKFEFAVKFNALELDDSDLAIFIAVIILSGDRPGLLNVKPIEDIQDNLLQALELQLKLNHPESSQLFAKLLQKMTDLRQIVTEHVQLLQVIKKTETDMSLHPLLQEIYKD
Experimental: The agonist activity of compound (I) to PPARγ was determined by a transactivation assay method using a chimeric nuclear receptor of a DNA binding region of a yeast transcription factor GAL4 and a PPARγ ligand binding region. Specifically, the PPARγ agonist activity of compound (I) was evaluated by the following method based on the method of Lehmann et al. (J Biol. Chem., 1995, vol. 270, page 12953).
HEK293EBNA cells cultured in Dulbecco's Modified Eagle medium (Invitrogen) containing 10 v/v % fetal calf serum (Invitrogen) were used. 30 mL of the above-mentioned cells (density: 1×10^5 cells/mL) were inoculated in a […] culture dish (Iwaki Glass), and cultured overnight. Using SuperFect Transfection Reagent (QIAGEN), a plasmid expressing a GAL4-PPARγ chimeric nuclear receptor fusing 174-475 amino acids, which are human PPARγ ligand binding region, and 1-147 amino acids, which are GAL4 DNA binding region, and a reporter plasmid expressing a GAL4 responsive luciferase were transiently introduced into the cells at a proportion of 4:1. After 5 hr from gene introduction, the cells were detached from the culture dish, and the detached cells (density: 2×10^4 cells/mL) were inoculated by 100 μL in each well of a 96 well white plate (SUMITOMO BAKELITE), and cultured overnight. The medium was removed, compound (I) diluted in various concentrations with serum-free Dulbecco's Modified Eagle medium was added by 100 μL, and the mixture was reacted under a 5% carbon dioxide gas stream (5% CO2) at 37° C. for 24 hr. On the other hand, as a positive control, 10 μmol/L of pioglitazone (100 μL) was added, and the mixture was reacted under a 5% carbon dioxide gas stream (5% CO2) at 37° C. for 24 hr. As a substrate of luciferase, 100 μL of Steady-Glo (Promega) was added to each well and the mixture was thoroughly stirred. Immediately thereafter, the chemical luminescence due to luciferase was measured using TopCount NTX (Packard).
The agonist activity (activity rate (%)) of compound (I) to PPARγ was calculated according to the following formula, as a relative activity when the agonist activity on addition of pioglitazone (10 μmol/L) was 100%.

[2] = test system: spontaneously hypertensive rats (SHR); assay: Antihypertensive action by tail cuff method; type: in vivo, rat; conditions: oral once a day for 7 days, about 4 to 9 hr after final administration
Experimental: 18- to 22-week-old spontaneously hypertensive rats (SHR) were used.
Before drug administration, the body weight, blood pressure and heart rate of each rat were measured, and the rats were grouped such that these values are almost the same between groups. A solvent (0.5% methylcellulose solution) and a test compound were repeatedly administered orally once a day for 7 days. At about 4 to 9 hr after the final administration, systolic blood pressure and heart rate were non-invasively measured according to the following.
The rats were placed in a cylindrical restrainer, heated to 37° C., and blood pressure and heart rate were measured under resting state using a Tail Cuff Method. For the measurement, a non-invasive blood pressure measurement apparatus (PS-600, Riken Kaihatsu, Tokyo) was used. The blood pressure and heart rate of each rat was measured 5 times, and the average was taken as the value of each rat.

[3] = test system: spontaneously hypertensive rats (SHR); assay: Antihypertensive action by telemetry method; type: in vivo, rat; conditions: oral once a day for 4 days, 24 hr averages
Source text: A telemetry transmitter was indwelled in the abdominal artery of spontaneously hypertensive rats (SHR), and the blood pressure and heart rate were monitored. The rats were acclimated and reared for 4 weeks or more, and only the rats with hypertension were used for the test. Before drug administration, the rats were grouped such that the blood pressure and heart rate of each rat would be of the same levels between the groups. A solvent (0.5% methylcellulose solution) and a test compound were repeatedly administered orally once a day for 4 days. The average systolic blood pressure for 24 hr, average diastolic blood pressure for 24 hr and average heart rate for 24 hr were calculated on each administration day.

| Structure (SMILES) | pEC50 [1] | antihypertensive action (systolic blood pressure, tail cuff) [2] | antihypertensive action (blood pressure, telemetry) [3] |
| --- | --- | --- | --- |
| CCc1nc2c(C)ccnc2n1Cc1ccc2c(c1)CCc1ccccc1/C2=C(/C)c1nnn[nH]1 [Compound 47, (E)-2-(2-ethyl-7-methyl-3H-imidazo[4,5-b]pyridin-3-yl)methyl-5-[1-(1H-tetrazol-5-yl)ethylidene]-10,11-dihydro-5H-dibenzo[a,d]cycloheptene] | 5.71 | antihypertensive action | antihypertensive action |
| CCc1nc2c(C)cc(C)nc2n1Cc1ccc2c(c1)CCc1ccccc1/C2=C\c1noc(=O)[nH]1 [Compound 29, (E)-2-(2-ethyl-5,7-dimethyl-3H-imidazo[4,5-b]pyridin-3-yl)methyl-5-(5-oxo-4,5-dihydro-1,2,4-oxadiazol-3-yl)methylene-10,11-dihydro-5H-dibenzo[a,d]cycloheptene] | 6.49 | antihypertensive action | antihypertensive action |
| CCc1nc2c(C)cc(C)nc2n1Cc1ccc2c(c1)CCc1ccccc1N2Cc1nnn[nH]1 [Compound S13, 2-(2-ethyl-5,7-dimethyl-3H-imidazo[4,5-b]pyridin-3-yl)methyl-5-(1H-tetrazol-5-yl)methyl-10,11-dihydro-5H-dibenzo[b,f]azepine] | 5.34 | antihypertensive action | antihypertensive action |
